Reference: patent US12655156B2, “Oxadiazolopyrazines and oxadiazolopyridines useful as mitochondrial uncouplers” (Virginia Tech Intellectual Properties, Inc., priority 2018, dated 2026)

What follows are molecules tested on whole cells (NMuLi, C2C12, and L6 cells, isolated cardiomyocytes, human primary fibroblasts) (assay: Oxygen consumption rate (OCR) in whole cells, Seahorse XF-24 Flux Analyzer). Settings: increase in OCR; binned EC50 values.
Assay type: cell-based
Protocol: Biological activities of the compounds synthesized is determined by determining increase in oxygen consumption rate (OCR).
Oxygen consumption rate (OCR) in whole cells is measured in general accordance with the method of Kenwood B M et al. (Mol. Met. (2014) 3:114-123).
OCR is measured using a Seahorse XF-24 Flux Analyzer (Seahorse Biosciences, North Billerica, MA). NMuLi, C2C12, and L6 cells are seeded in a Seahorse 24-well tissue culture plate at a density of 3.5×10^4 cells/well, isolated cardiomyocytes at a density of 4×10^4 cells/well, and human primary fibroblasts at a density of 1.1×10^4 cells/well. The cells are then allowed to adhere for 24 h. Prior to the assay, the media is changed to unbuffered DMEM containing pyruvate and glutamine (Gibco #12800-017, pH=7.4 at 37° C.) and the cells are equilibrated for 30 mins at 37°° C. Compounds are injected during the assay and OCR is measured using 2 min measurement periods.
2-3 wells are used per condition and averaged over three plates (n=6-9). Statistical significance is determined by two-way ANOVA with Bonferroni's posttest.
Activities are reported as binned EC50 values: A=5 μM or less; B=>5 to 20 μM; C=over 20 μM; NA=not active.
`Oc1nc2nonc2nc1Nc1ccc(F)c(-c2ccc(C(F)(F)F)nc2)c1` [1-116, 6-((4-fluoro-3-(6-(trifluoromethyl)pyridin-3-yl)phenyl)amino)-[1,2,5]oxadiazolo[3,4-b]pyrazin-5-ol] was tested, and the EC50 was 5 to 20 µM.
Molecule `COc1ccccc1Nc1nc2nonc2nc1O` [1-94, 6-((2-methoxyphenyl)amino)-[1,2,5]oxadiazolo[3,4-b]pyrazin-5-ol] has an EC50 greater than 20 µM.
In the case of `Oc1nc2nonc2nc1Nc1cccc(-c2ccc(F)cc2)c1` [1-134, 6-((4′-fluoro-[1,1′-biphenyl]-3-yl)amino)-[1,2,5]oxadiazolo[3,4-b]pyrazin-5-ol], the EC50 is reported as no more than 5 µM.
`Oc1nc2nonc2nc1Nc1ccc(OCC2CC2)c(C(F)(F)F)c1` [1-92, 6-((4-(cyclopropylmethoxy)-3-(trifluoromethyl)phenyl)amino)-[1,2,5]oxadiazolo[3,4-b]pyrazin-5-ol] showed an EC50 of no more than 5 µM.
In the case of `Oc1nc2nonc2nc1Nc1ccc(OCCCC(F)(F)F)c(C(F)(F)F)c1` [1-100, 6-((4-(4,4,4-trifluorobutoxy)-3-(trifluoromethyl)phenyl)amino)-[1,2,5]oxadiazolo[3,4-b]pyrazin-5-ol], the EC50 is reported as no more than 5 µM.
`COc1nc2nonc2cc1Nc1ccc(-c2ccc(C(F)(F)F)nc2)cc1` [1-225, 5-methoxy-N-(4-(6-(trifluoromethyl)pyridin-3-yl)phenyl)-[1,2,5]oxadiazolo[3,4-b]pyridin-6-amine] showed an EC50 greater than 20 µM.
With `Oc1nc2nonc2nc1Nc1ccccc1Cl` [1-20, 6-((2-Chlorophenyl)amino)-[1,2,5]oxadiazolo[3,4-b]pyrazin-5-ol] the EC50 was 5 to 20 µM.
Work on `Cc1cc(Nc2nc3nonc3nc2O)ccc1OCC(F)(F)F` [1-89, 6-((3-Methyl-4-(2,2,2-trifluoroethoxy)phenyl)amino)-[1,2,5]oxadiazolo[3,4-b]pyrazin-5-ol] yielded an EC50 of 5 to 20 µM.
Molecule `Oc1nc2nonc2nc1Nc1ccc(S(F)(F)(F)(F)F)cc1` [1-30, 6-((4-(Pentafluoro-16-sulfaneyl)phenyl)amino)-[1,2,5]oxadiazolo[3,4-b]pyrazin-5-ol] has an EC50 of no more than 5 µM.
With `CCCCCCc1ccc(Nc2nc3nonc3nc2O)c(OC(F)(F)F)c1` [1-70, 6-((4-hexyl-2-(trifluoromethoxy)phenyl)amino)-[1,2,5]oxadiazolo[3,4-b]pyrazin-5-ol] the EC50 was 5 to 20 µM.
`CCc1ccc(Nc2nc3nonc3nc2O)cc1` [1-61, 6-((4-Ethylphenyl)amino)-[1,2,5]oxadiazolo[3,4-b]pyrazin-5-ol] gave an EC50 of 5 to 20 µM.
For `CCCCOc1cccc(Nc2nc3nonc3nc2O)c1` [1-96, 6-((3-butoxyphenyl)amino)-[1,2,5]oxadiazolo[3,4-b]pyrazin-5-ol], the EC50 was no more than 5 µM.
`CCCCCc1ccc(Nc2nc3nonc3nc2O)c(OC(F)(F)F)c1` [1-69, 6-((4-Pentyl-2-(trifluoromethoxy)phenyl)amino)-[1,2,5]oxadiazolo[3,4-b]pyrazin-5-ol] gave an EC50 of no more than 5 µM.
For `Oc1nc2nonc2nc1NC1CCCCC1` [1-212, 6-(cyclohexylamino)-[1,2,5]oxadiazolo[3,4-b]pyrazin-5-ol], the EC50 was greater than 20 µM.
`CC1(C)c2ccccc2-c2ccc(Nc3nc4nonc4nc3O)cc21` [1-118, 6-((9,9-dimethyl-9H-fluoren-2-yl)amino)-[1,2,5]oxadiazolo[3,4-b]pyrazin-5-ol] gave an EC50 of no more than 5 µM.
For `CC(=O)c1ccc(Nc2nc3nonc3nc2O)cc1` [1-47, 1-(4-((6-Hydroxy-[1,2,5]oxadiazolo[3,4-b]pyrazin-5-yl)amino)phenyl)ethan-1-one], the EC50 was greater than 20 µM.
With `Cc1ccc(CNc2nc3nonc3nc2O)cc1` [1-78, 6-((4-methylbenzyl)amino)-[1,2,5]oxadiazolo[3,4-b]pyrazin-5-ol] the EC50 was greater than 20 µM.
`Oc1nc2nonc2nc1Nc1cccc(OCc2ccc(C(F)(F)F)cc2)c1` [1-97, 6-((3-((4-(Trifluoromethyl)benzyl)oxy)phenyl)amino)-[1,2,5]oxadiazolo[3,4-b]pyrazin-5-ol] showed an EC50 of no more than 5 µM.
Work on `Oc1nc2nonc2cc1Nc1ccc(OC(F)(F)F)cc1F` [1-251, 6-((2-fluoro-4-(trifluoromethoxy)phenyl)amino)-[1,2,5]oxadiazolo[3,4-b]pyridin-5-ol] yielded an EC50 of no more than 5 µM.
`Oc1nc2nonc2nc1Nc1ccc(OC(F)(F)F)c(Br)c1` [1-39, 6-((3-Bromo-4-(trifluoromethoxy)phenyl)amino)-[1,2,5]oxadiazolo[3,4-b]pyrazin-5-ol] showed an EC50 of no more than 5 µM.
`Cc1ccc(-c2cccc(Nc3nc4nonc4nc3O)c2)cc1` [1-132, 6-((4′-methyl-[1,1′-biphenyl]-3-yl)amino)-[1,2,5]oxadiazolo[3,4-b]pyrazin-5-ol] showed an EC50 of no more than 5 µM.
`CC(C)(C)c1cccc(Nc2nc3nonc3nc2O)c1` [1-53, 6-((3-(tert-Butyl)phenyl)amino)-[1,2,5]oxadiazolo[3,4-b]pyrazin-5-ol] gave an EC50 of no more than 5 µM.
`Oc1nc2nonc2nc1Nc1ccc(F)cc1` [1-5, 6-((4-Fluorophenyl)amino)-[1,2,5]oxadiazolo[3,4-b]pyrazin-5-ol] showed an EC50 greater than 20 µM.
Work on `Oc1nc2nonc2nc1Nc1cccc(I)c1` [1-18, 6-((3-Iodophenyl)amino)-[1,2,5]oxadiazolo[3,4-b]pyrazin-5-ol] yielded an EC50 of 5 to 20 µM.
With `Oc1nc2nonc2nc1Nc1ccccc1C(F)(F)F` [1-6, 6-((2-(Trifluoromethyl)phenyl)amino)-[1,2,5]oxadiazolo[3,4-b]pyrazin-5-ol] the EC50 was 5 to 20 µM.
`CCCCOc1ccc(Nc2nc3nonc3nc2O)cc1` [1-95, 6-((4-butoxyphenyl)amino)-[1,2,5]oxadiazolo[3,4-b]pyrazin-5-ol] showed an EC50 of no more than 5 µM.
Molecule `Oc1nc2nonc2nc1Nc1ccc(F)c(Br)c1` [1-33, 6-((3-Bromo-4-fluorophenyl)amino)-[1,2,5]oxadiazolo[3,4-b]pyrazin-5-ol] has an EC50 of 5 to 20 µM.
`Oc1nc2nonc2nc1Nc1ccc(C(F)(F)F)nc1` [1-208, 6-((6-(trifluoromethyl)pyridin-3-yl)amino)-[1,2,5]oxadiazolo[3,4-b]pyrazin-5-ol] showed an EC50 greater than 20 µM.
For `Cc1ccc(C(F)(F)F)cc1Nc1nc2nonc2nc1O` [1-12, 6-((2-Methyl-5-(trifluoromethyl)phenyl)amino)-[1,2,5]oxadiazolo[3,4-b]pyrazin-5-ol], the EC50 was 5 to 20 µM.
Molecule `Cc1ccc(Nc2nc3nonc3nc2O)cc1` [1-58, 6-(p-Tolylamino)-[1,2,5]oxadiazolo[3,4-b]pyrazin-5-ol] has an EC50 greater than 20 µM.
Molecule `N#Cc1cc(-c2ccc(Nc3nc4nonc4nc3O)cc2)cs1` [1-123, 4-(4-((6-hydroxy-[1,2,5]oxadiazolo[3,4-b]pyrazin-5-yl)amino)phenyl)thiophene-2-carbonitrile] has an EC50 of no more than 5 µM.
For `Oc1nc2nonc2nc1Nc1ccc(C2CCCCC2)cc1` [1-205, 6-((4-cyclohexylphenyl)amino)-[1,2,5]oxadiazolo[3,4-b]pyrazin-5-ol], the EC50 was no more than 5 µM.
Molecule `Oc1nc2nonc2nc1NCc1ccc(Br)cc1` [1-77, 6-((4-bromobenzyl)amino)-[1,2,5]oxadiazolo[3,4-b]pyrazin-5-ol] has an EC50 greater than 20 µM.
In the case of `Oc1nc2nonc2nc1Nc1ccc(Cl)cc1` [1-21, 6-((4-Chlorophenyl)amino)-[1,2,5]oxadiazolo[3,4-b]pyrazin-5-ol], the EC50 is reported as 5 to 20 µM.
`Oc1nc2nonc2nc1Nc1ccc(I)cc1` [1-19, 6-((4-Iodophenyl)amino)-[1,2,5]oxadiazolo[3,4-b]pyrazin-5-ol] gave an EC50 of 5 to 20 µM.
`Oc1nc2nonc2nc1NC12CC3CC(CC(C3)C1)C2` [1-81, 6-(((3S,5S,7S)-adamantan-1-yl)amino)-[1,2,5]oxadiazolo[3,4-b]pyrazin-5-ol] gave an EC50 of 5 to 20 µM.
Molecule `Oc1nc2nonc2cc1Nc1cccc(C(F)(F)F)c1F` [1-232, 6-((2-fluoro-3-(trifluoromethyl)phenyl)amino)-[1,2,5]oxadiazolo[3,4-b]pyridin-5-ol] has an EC50 greater than 20 µM.
With `Oc1nc2nonc2nc1Nc1ccc(OC(F)F)cc1` [1-27, 6-((4-(Difluoromethoxy)phenyl)amino)-[1,2,5]oxadiazolo[3,4-b]pyrazin-5-ol] the EC50 was greater than 20 µM.
In the case of `Oc1nc2nonc2nc1Nc1ccc(OCC(F)(F)F)c(F)c1` [1-90, 6-((3-Fluoro-4-(2,2,2-trifluoroethoxy)phenyl)amino)-[1,2,5]oxadiazolo[3,4-b]pyrazin-5-ol], the EC50 is reported as 5 to 20 µM.
With `Oc1nc2nonc2cc1Nc1cccc(F)c1F` [1-250, 6-((2,3-difluorophenyl)amino)-[1,2,5]oxadiazolo[3,4-b]pyridin-5-ol] the EC50 was no more than 5 µM.
With `Oc1nc2nonc2nc1NCc1ccc(OC(F)(F)F)cc1` [1-80, 6-((4-(trifluoromethoxy)benzyl)amino)-[1,2,5]oxadiazolo[3,4-b]pyrazin-5-ol] the EC50 was greater than 20 µM.
`Oc1nc2nonc2nc1Nc1ccc(OCC(F)(F)F)c(C(F)(F)F)c1` [1-91, 6-((4-(2,2,2-Trifluoroethoxy)-3-(trifluoromethyl)phenyl)amino)-[1,2,5]oxadiazolo[3,4-b]pyrazin-5-ol] was tested, and the EC50 was 5 to 20 µM.
Molecule `CCc1ccc(Nc2nc3nonc3nc2O)c(F)c1` [1-68, 6-((4-ethyl-2-fluorophenyl)amino)-[1,2,5]oxadiazolo[3,4-b]pyrazin-5-ol] has an EC50 of 5 to 20 µM.
`Oc1nc2nonc2nc1Nc1ccc(I)cc1OC(F)(F)F` [1-35, 6-((4-Iodo-2-(trifluoromethoxy)phenyl)amino)-[1,2,5]oxadiazolo[3,4-b]pyrazin-5-ol] gave an EC50 of no more than 5 µM.
With `Oc1nc2nonc2nc1Nc1ccc(OC(F)(F)F)c(-c2ccc(C(F)(F)F)nc2)c1` [1-117, 6-((4-(trifluoromethoxy)-3-(6-(trifluoromethyl)pyridin-3-yl)phenyl)amino)-[1,2,5]oxadiazolo[3,4-b]pyrazin-5-ol] the EC50 was 5 to 20 µM.
